Data on 1 molecule can be found in patent US20190374505A1, “METHODS AND COMPOSITIONS FOR THE TREATMENT OF NON-ALCOHOLIC STEATOHEPATITIS” (Vivus, Inc., priority 2016, published 2019).

Common to all, as to type: in vivo, mouse
Data set [1] deals with STAM model mice (NASH). Nature of the data set: STAM model mice: blood biochemistry and liver triglyceride content. Conditions: day of sacrifice, mean ± SD. The text has this: (§1) Having observed the improvements in markers that correlate with liver disease in patients treated with PHEN/TPM, animal studies in the STAM model for NAFLD/NASH were preformed to look more specifically at liver morphology and function following treatment with PHEN/TPM. The STAM model was selected because it allows a specific examination of the effects of drug treatment, in this example PHEN/TPM, on non-alcoholic steatohepatitis. The STAM model is a non-genetic animal model of human NASH with features of diabetic background, increased. NAFLD activity score (NAS), perivenular and pericellular fibrosis in Zone 3, and a high incidence of hepatocellular carcinoma (Fujii M. et al., Med. Mel. Morphol., 2013; 46: 141). The model is induced by a combination of chemical and dietary interventions in the mice. In this example, NASH was induced in 30 male mice by a single subcutaneous injection of 200 μg streptozotocin (STZ, Sigma-Aldrich, USA) solution 2 days after birth and feeding with a high fat diet (HFD, 57 kcal % fat, cat#: HFD32, CLEA Japan, Japan) after 4 weeks of age. The mice were treated with either vehicle, PHEN/TPM or Telmisartan.
Phentermine (PHEN) and Topiramate (TPM) were weighed and dissolved in distilled water and 0.5% methylcellulose, respectively. Telmisartan (MICARDIS®) was purchased from Boehringer Ingelheim GmbH (Germany) and suspended in milli-Q water. Vehicle, PHEN and TPM were orally administered in a volume of 5 mL/kg. Telmisartan was orally administered in a volume of 10 mL/kg. PHEN was administered at a dose of 15 mg/kg once daily. […]
Measurement of blood biochemistry. Non-fasting blood glucose was measured in whole blood using LIFE CHECK (EIDrA, Japan). […] The plasma ALT (alanine aminotransferase) and AST (aspartate aminotransferase) levels were measured by FUJI DRI CHEM 7000 (FujiFilm, Japan) Measurement of liver triglyceride content Liver total lipid-extracts were obtained by Folch's method (Folch J. el al., J. Bioi. Chern. 1957; 226: 497). […] Liver triglyceride levels were measured by Triglyceride E-test (Wako Pure Chemical Industries, Japan). […]

Data set [2] deals with STAM model mice (NASH). Nature of the data set: STAM model mice: liver histopathology (HE/NAS, Sirius red, Oil red, F4/80).
Excerpt: as §1
(§2) Phentermine (PHEN) and Topiramate (TPM) were weighed and dissolved in distilled water and 0.5% methylcellulose, respectively. Telmisartan (MICARDIS®) was purchased from Boehringer Ingelheim GmbH (Germany) and suspended in milli-Q water. Vehicle, PHEN and TPM were orally administered in a volume of 5 mL/kg. Telmisartan was orally administered in a volume of 10 mL/kg. PHEN was administered at a dose of 15 mg/kg once daily. TPM was administered at a dose of 100 mg/kg once daily. Telmisartan was administered at a dose of 5 mg/kg once daily.
Histopathology analysis. For HE staining, sections were cut from paraffin blocks of liver tissue prefixed in Bouin's solution and stained with Lillie-Mayers Hematoxylin (Muto Pure Chemicals, japan) and eosin solution (Wako Pure Chemical industries). NAS was calculated according to the criteria of Kleiner (Kleiner D E. et al., Hepatology, 2005; 41: 1313). To visualize collagen deposition, Bouin's fixed liver sections were stained using picro-Sirius red solution (Waldeck, Gelman)). To visualize macro- and microvesicular fat, sections were cut from frozen liver tissues embedded in Tissue-Tek O.C.T. compound (Sakura Finetek Japan, Japan), and stained with Oil Red 0 (SigmaAldrich). For immunohistochemistry, sections were cut from frozen liver tissues embedded in Tissue-Tek O.C.T. compound and fixed in acetone. Endogenous peroxidase activity was blocked using 0.03% H2O2 for 5 minutes, followed by incubation with Block Ace (Dainippon Sumitomo Pharma, Japan) for 10 minutes. The sections were incubated with a 200-fold dilution of anti-F4/80 antibody (BMA Biomedicals, Switzerland) 1 hour at room temperature. After incubation with secondary antibody (HRP-Goat anti-rat antibody, Invitrogen, USA), enzyme-substrate reactions were performed using 3, 3′-diaminobenzidine/H202 solution (Nichirei, Japan). For quantitative analyses of fibrosis, inflammation and fat deposition areas, bright field images of Sirius red-stained, F4/80-immunostained and oil red-stained sections were captured around the central vein using a digital camera (DFC280; Leica, Germany) at 200-fold magnification, and the positive areas in 5 fields/section were measured using ImageJ software (National Institute of Health, USA).
(§3) The three treatment groups were as follows: Group 1: Vehicle: 10 NASH mice were orally administered vehicle [distilled water and 0.5% methylcellulose in a volume of 5 mL./kg, respectively] once daily from 5 to 11 weeks of age. Group 2: PHEN/WM. 10 NASH mice were orally administered distilled water supplemented with PHEN at a dose of 15 mg/kg, and 0.5% methylcellulose supplemented with TPM at a dose of 100 mg/kg once daily from 5 to 11 weeks of age. Group 3: Telmisartan. […]

The subject of data set [3] is liver mRNA of TNF-α, TIMP-1, Alpha-SMA, MMP-9, collagen type 1, MCP-1. Nature of the data set: STAM model mice: liver gene expression analysis (real-time PCR, normalized to 36B4). Particulars: vehicle average = 1.0, mean ± SD.
Excerpt: as §1, §2
Total RNA was extracted from liver samples using RNAiso (Takara Bio, Japan) and SV total RNA isolation kit (Promega, USA) according to the manufacturer's instructions. One/1 g of RNA was reverse-transcribed using a reaction mixture containing 4.4 mM MgCb (F. Hoffmann-La Roche, Switzerland), 40 U RNase inhibitor (Toyobo, Japan), 0.5 mM dNTP (Promega), 6.28 µM random hexamer (Promega), 5× first strand buffer (Promega), 10 mM dithiothreitol (Invitrogen, USA) and 200 U MMLV-RT (Invitrogen) in a final volume of 20 IIL. The reaction was carried out for 1 hour at 37° C., followed by 5 minutes at 99° C. Real-time PCR was performed using real-time PCR DICE and SYBR premix Tag (Takara Bio). To calculate the relative mRNA expression level, the expression of each gene was normalized to that of reference gene 36B4 (gene symbol: RplpO). To express data as fold-change relative to the Vehicle-control group, the data were standardized so that average values of the Vehicle group become 1.0.
The three treatment groups were as follows: Group 1: Vehicle: 10 NASH mice were orally administered vehicle [distilled water and 0.5% methylcellulose in a volume of 5 mL./kg, respectively] once daily from 5 to 11 weeks of age. Group 2: PHEN/WM. 10 NASH mice were orally administered distilled water supplemented with PHEN at a dose of 15 mg/kg, and 0.5% methylcellulose supplemented with TPM at a dose of 100 mg/kg once daily from 5 to 11 weeks of age. Group 3: Telmisartan. 10 NASH mice were orally administered pure water supplemented with Telmisartan at a dose of 5 mg/kg once daily from 5 to 11 weeks of age.
The values in Table 7 were calculated by dividing Target by 36B4 for each animal. An average was calculated in the vehicle group. The initial calculations of Target/36B4 was divided by the vehicle average so the vehicle average becomes 1.0. This second Target/36B4 represents a fold-change of Target gene relative to the vehicle average.

Data set [4] deals with STAM model mice (NASH). Nature of the data set: STAM model mice: viability, body weight, food consumption, liver weight.
Excerpt: as §1, §2
C57BL16 mice (15-day-pregnant female) were obtained from Japan SLC (Japan) and were housed in accordance with the Japanese Pharmacological Society Guidelines for Animal Use. The animals were maintained in a SPF facility under controlled conditions of temperature (23±2° C.), humidity (45±10%), lighting (12-hour artificial light and dark cycles; light from 8:00 to 20:00) and air exchange. A high pressure was maintained in the experimental room to prevent contamination of the facility. The animals were housed in TPX cages (CLEA Japan) with a maximum of 4 mice per cage. Sterilized Paper-Clean (Japan SLC) was used for bedding and replaced once a week.
Sterilized solid HFD was provided ad libitum, being placed in a metal lid on the top of the cage. Pure water was provided ad libitum from a water bottle equipped with a rubber stopper and a sipper tube. Water bottles were replaced once a week, cleaned and sterilized in an autoclave and reused. Mice were identified by numbers engraved on earrings. Each cage was labeled with a specific identification code.
as §3
The viability, clinical signs and behavior were monitored daily. […]
The body weight of each mouse was recorded daily and food consumption was recorded 3 times weekly during the treatment period. […]

[5] abbreviates: day of sacrifice, mean ± SD, PHEN 15 + TPM 100 mg/kg (n=6), Telmisartan 5 mg/kg (n=8).

Several values for one entry are separate records, joined by “and”; a condition that tells them apart may be missing. Identical values can stand only once.

On to `CCCc1nc2c(C)cc(-c3nc4ccccc4n3C)cc2n1Cc1ccc(-c2ccccc2C(=O)O)cc1` [Telmisartan], for which, in data set [1], the “Plasma ALT” value was 39 U/L and 39 ± 34 U/L; the “Plasma AST” value was 229 U/L and 229 ± 176 U/L. Also, the Whole blood glucose in data set [1] (non-fasting) was 768 mg/dL and 768 ± 199 mg/dL. In data set [2] (mean ± SD), the “Fibrosis area (Sirius-red)” value is 0.81% and 0.81 ± 0.39%; the “Inflammation area (F4/80)” value was 1.48 ± 0.76%. For the same molecule, the “Number of mice with Steatosis score 0” value in data set [2] (score 0 = <5%) came out at 2. In addition, in data set [2] (score 0 = No foci), the “Number of mice with Lobular Inflammation score 0” value is reported as 2. For the same molecule, the “Number of mice with Steatosis score 1” value in data set [2] (score 1 = 5-33%) worked out at 6. Besides, in data set [2] (score 1 = <2 foci/200x), the “Number of mice with Lobular Inflammation score 1” value came out at 2. For the same molecule, in data set [2] (score 1 = Few balloon cells), the “Number of mice with Hepatocyte Ballooning score 1” value is 4. Besides, in data set [2] (score 2 = 2-4 foci/200x), the “Number of mice with Lobular Inflammation score 2” value worked out at 4. Also, the “Number of mice with Hepatocyte Ballooning score 2” value in data set [2] (score 2 = Many cells/prominent ballooning) stood at 4. In data set [3], the “Alpha-SMA/36B4 mRNA expression, fold change relative to Vehicle group” value is 0.54 and 0.54 ± 0.40; the “Collagen Type 1/36B4 mRNA expression, fold change relative to Vehicle group” value was 0.80 and 0.80 ± 0.11; the “MCP-1/36B4 mRNA expression, fold change relative to Vehicle group” value was 0.44 and 0.44 ± 0.23; the “MMP-9/36B4 mRNA expression, fold change relative to Vehicle group” value is 1.21 and 1.21 ± 0.36. In data set [3], the “TIMP-1/36B4 mRNA expression, fold change relative to Vehicle group” value is 0.66 and 0.66 ± 0.46; the “TNF-α/36B4 mRNA expression, fold change relative to Vehicle group” value was 0.75 and 0.75 ± 0.17. In data set [4] (day of sacrifice), the “Mean body weight reduced compared to the Vehicle group” value is listed as 11.4%. In data set [4] (day of sacrifice, mean ± SD), the Liver-to-body weight ratio came to 6.2 ± 1.1%. Moreover, in data set [4] (setting [5]), the Body weight was 18.7 g and 18.7 ± 1.7 g; the Liver weight was found to be 1156 ± 210 mg. Besides, in data set [4] (treatment period 5 to 11 weeks of age, oral once daily, PHEN 15 mg/kg + TPM 100 mg/kg, Telmisartan 5 mg/kg), the “Mice found dead before reaching week 11” value is “Two out of 10”.
